According to US6949531B2, “14 β, 16, 17-methylene steroids as novel androgens” (Akzo Nobel N.V., priority 2000, dated 2005):

Columns and labels:
[1] = system: androgen receptor; assay: androgenic activity rating (procedures described above); set-up: key: +: androgenic activity found; ++: high androgenic activity; +++: excellent androgenic activity; settings: rated according to scheme; test procedure not specified
Protocol: (§1) Androgenic activity can be measured in various ways. Thus, the potency of androgens can be determined in vitro using the cytoplasmic androgen receptor from human breast tumor cells (MCF-7 cell line); see Bergink, E. W. et al, Comparison of the receptor binding properties of nandrolone and testosterone under in vitro and in vivo conditions, J. Steroid Biochem. 22, 831-836 (1985). It is also possible to use Chinese hamster ovary (CHO) cells transfected with the human androgen receptor (incubation time 16 h, temperature 4° C.) and compared with the affinity of 5α-dihydrotestosterone [according to the procedure described by Bergink, E. W. et al, J. Steroid Biochem. 19, 1563-1570 (1983)]. The transactivative androgen activity of the compounds of the invention can be measured, e.g. in Chinese hamster ovary cells (CHO) transfected with the human androgen receptor (hAR), in combination with a mouse mammary tumor virus (MMTV), and luciferase […] gene (incubation time 16 h, temperature 37° C.) and compared with the activity of […] [according to the procedure described by Schoonen, W. G. E. J. et al, Analyt. Biochem. 261, 222-224 (1998)]. For the in vivo potency determination of androgens the classical Hershberger test can be used. In this test the androgenic (increase in prostate weight) and anabolic activities [increase of the musculus levator ani (MLA)] of a compound are tested in immature castrated rats after daily administration for 7 days; see Hershberger, L. G. et al, Myotrophic activity of 19-Nortestosteronie and other steroids determined by modified levator ani muscle method, Proceedings of the society for experimental biology and medicine 83, 175-180 (1953). Additionally, the effect of an androgenic compound on LH suppression can be tested in mature castrated rats according to Kumar, N. et al, The biological activity of 7alpha-methyl-19-nortestosterone is not amplified in male reproductive tract as is that of testosterone, Endocrinology 130, 3677-3683 (1992).
The compounds according to the invention were tested for androgenic activity (the procedures for which have been described above) and rated according to the following scheme: […]

[2] = target: T1, human androgen receptor (hAR) (Homo sapiens, UniProt P10275); assay: transactivative androgen activity in CHO cells transfected with hAR, MMTV and luciferase reporter gene; type: cell-based; settings: MMTV, luciferase, incubation 16 h, 37° C., compared with the activity of dihydrotestosterone
T1 construct: expressed in transfected cells; host or cells: Chinese hamster ovary (CHO) cells
T1 sequence (P10275 1-920): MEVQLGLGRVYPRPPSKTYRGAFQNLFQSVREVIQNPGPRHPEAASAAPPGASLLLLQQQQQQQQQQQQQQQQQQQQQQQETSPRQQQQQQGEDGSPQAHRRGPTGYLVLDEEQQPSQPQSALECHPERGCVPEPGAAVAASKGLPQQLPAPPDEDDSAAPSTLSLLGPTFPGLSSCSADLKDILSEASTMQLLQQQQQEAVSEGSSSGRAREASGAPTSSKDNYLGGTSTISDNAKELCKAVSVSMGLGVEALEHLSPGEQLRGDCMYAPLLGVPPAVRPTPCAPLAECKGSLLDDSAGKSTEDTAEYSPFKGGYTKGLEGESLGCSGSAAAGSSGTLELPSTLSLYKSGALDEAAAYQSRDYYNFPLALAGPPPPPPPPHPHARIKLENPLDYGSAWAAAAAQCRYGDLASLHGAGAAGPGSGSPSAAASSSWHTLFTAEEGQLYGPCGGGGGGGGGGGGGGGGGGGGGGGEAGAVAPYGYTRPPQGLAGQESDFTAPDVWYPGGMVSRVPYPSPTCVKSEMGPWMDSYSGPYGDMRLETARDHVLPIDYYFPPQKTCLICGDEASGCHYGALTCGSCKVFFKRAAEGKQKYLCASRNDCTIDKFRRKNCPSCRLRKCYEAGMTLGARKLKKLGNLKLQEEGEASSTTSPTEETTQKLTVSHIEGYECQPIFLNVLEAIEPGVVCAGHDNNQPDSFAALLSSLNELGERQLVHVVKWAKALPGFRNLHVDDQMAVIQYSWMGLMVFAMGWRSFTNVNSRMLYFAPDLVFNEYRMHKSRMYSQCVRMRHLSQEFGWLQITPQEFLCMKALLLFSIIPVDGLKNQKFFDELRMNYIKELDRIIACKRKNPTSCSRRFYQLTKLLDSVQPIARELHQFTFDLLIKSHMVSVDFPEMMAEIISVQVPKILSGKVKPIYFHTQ
Protocol: as §1, with “Biochem. 261, 222-224 (1998)]. For the in vivo potency determination of androgens the classical Hershberger test can be used.” left out, “Additionally, the effect of an androgenic compound on LH suppression can be tested in mature castrated rats according to Kumar, N. et al, The biological activity of 7alpha-methyl-19-nortestosterone is not amplified in male reproductive tract as is that of testosterone, Endocrinology 130, 3677-3683 (1992).” left out
The transactivative androgen activity was determined in a comparison of the following compounds: the compound of Example 1 according to the invention, i.e. (7α,14β,16α,17α)-16,17-dihydro-17-(hydroxymethyl)-7-methyl-3′H-cyclopropa[16,17]estra-4,16-dien-3-one, and compounds denoted C1 and C2, not according to the invention, which respectively are (7α,14β,16β,17α)-17-(hydroxymethyl)-7,16-dimethylestr-4-en-3-one and (7α,14β,17α)-17-(hydroxymethyl)-7,17-dimethylestr-4-en-3-one as disclosed in WO 00/53619.

With CC[C@H](O)[C@]12C[C@H]1C[C@@H]1[C@H]3[C@H](CC[C@@]12C)[C@H]1CCC(=O)C=C1C[C@H]3C [Example 3a, [7α,14β,16α,17α(20S)]-16,17-Dihydro-20-(1-hydroxypropyl)-7-methyl-3′H-cyclopropa [16,17]estra-4,16-dien-3-one] the “Result (androgenic activity)” value [1] was “++”.
For C[C@@H]1CC2=CC(=O)CC[C@@H]2[C@H]2CC[C@@]3(C)[C@H](C[C@H](C)[C@H]3CO)[C@@H]21 [Example C1, (7α,14β,16β,17α)-17-(hydroxymethyl)-7,16-dimethylestr-4-en-3-one], the Transactivative androgen activity [2] was 72.
With CC1CC2=CC(=O)CCC2C2CCC3(C)C(CCC3(C)CO)C12 (stereo not drawn) [Example C2, (7α,14β,17α)-17-(hydroxymethyl)-7,17-dimethylestr-4-en-3-one] the Transactivative androgen activity [2] was 22.
With C[C@]12CC[C@H]3[C@@H](CCC4=CC(=O)CC[C@@H]43)[C@H]1C[C@@H]1C[C@@]12CO [Example 6, (14β,16α,17α)-16,17-Dihydro-17-(hydroxymethyl)-3′H-cyclopropa[16,17]estra-4,16-dien-3-one] the “Result (androgenic activity)” value [1] was “++”.
In the case of C[C@@H]1CC2=C/C(=N\O)CC[C@@H]2[C@H]2CC[C@@]3(C)[C@H](C[C@@H]4C[C@@]43CO)[C@@H]21 [Example 5b, (3Z,7α,14β,16α,17α)-16,17-dihydro-3-(hydroxyimino)-7-methyl-3′H-cyclopropa[16,17]estra-4,16-diene-17-methanol], the “Result (androgenic activity)” value [1] is reported as “(prodrug)”.
In the case of C#C[C@H](O)[C@]12C[C@H]1C[C@@H]1[C@H]3[C@H](CC[C@@]12C)[C@H]1CCC(=O)C=C1C[C@H]3C [Example 3b, [7α,14β,16α,17α(20S)]-16,17-Dihydro-20-(1-hydroxy-2-propynyl)-7-methyl-3 ′H-cyclopropa[16,17]estra-4,16-dien-3-one], the “Result (androgenic activity)” value [1] is reported as “++”.
In the case of C[C@@H]1CC2=CC(=O)CC[C@@H]2[C@H]2CC[C@@]3(C)[C@H](C[C@@H]4C[C@@]43[C@H](C)O)[C@@H]21 [Example 2, (7α,14β,16α,17α,20S)-16,17-Dihydro-20-hydroxy-7-methyl-3′H-cyclopropa[16,17]-19-norpregna-4,16-dien-3-one], the “Result (androgenic activity)” value [1] is reported as “++”.
For C[C@]12CC[C@H]3[C@@H](CC[C@H]4CC(=O)CC[C@@H]43)[C@H]1C[C@@H]1C[C@@]12CO [Example 7, (5α,14β,16α,17α)-16,17-Dihydro-17-(hydroxymethyl)-3′H-cyclopropa[16,17]estr-16-en-3-one], the “Result (androgenic activity)” value [1] was “++”.
In the case of C[C@@H]1CC2=C[C@@H](O)CC[C@@H]2[C@H]2CC[C@@]3(C)[C@H](C[C@@H]4C[C@@]43CO)[C@@H]21 [Example 4, (3β,7α,14β,16α,17α)-16,17-Dihydro-17-(hydroxymethyl)-7-methyl-3′H-cyclopropa[16,17]estra-4,16-dien-3-ol], the “Result (androgenic activity)” value [1] is reported as “(prodrug)”.
C[C@@H]1CC2=CC(=O)CC[C@@H]2[C@H]2CC[C@@]3(C)[C@H](C[C@@H]4C[C@@]43CO)[C@@H]21 [Example 1, (7α,14β,16α,17α)-16,17-Dihydro-17-(hydroxymethyl)-7-methyl-3′H-cyclopropa[16,17]estra-4,16-dien-3-one] was tested, and the “Result (androgenic activity)” value [1] was “+++” and the Transactivative androgen activity [2] was 263.
C[C@@H]1CC2=C/C(=N/O)CC[C@@H]2[C@H]2CC[C@@]3(C)[C@H](C[C@@H]4C[C@@]43CO)[C@@H]21 [Example 5a, (3E,7α,14β,16α,17α)-16,17-Dihydro-3-(hydroxyimino)-7-methyl-3′H-cyclopropa[16,17]estra-4,16-diene-17-methanol] was tested, and the “Result (androgenic activity)” value [1] was “(prodrug)”.
